Assay results as given in patent EP0084756A1, “Trisubstituted oxaza compounds” (CIBA-GEIGY AG, priority 1982, dated 1983).
Values after ≈ are worked out from the molar mass of the structure shown.

System: mit Crotonöl induzierten Rattenohroedems
Test: Croton oil-induced rat ear oedema, method of Tonelli and Thibault, local application
Type: in vivo, Normalratte
Conditions: inhibition of croton oil-induced rat ear oedema in the normal rat
Experimental: Diese Eigenschaft lässt sich beispielsweise nach der von G. Tonelli, L. Thibault, Endocrinology 77, 625 (1965) entwickelten Methode durch Hemmung des mit Crotonöl induzierten Rattenohroedems bei der Normalratte im Dosisbereich von etwa 1 bis etwa 100 mg/ml nachweisen.

## CCOC(=O)Cc1nc(-c2ccccc2)c(-c2cccnc2)[nH]1 [2-[4-Phenyl-5-(3-pyridyl)-imidazol-2-yl]-essigsäureethylester]
  ED50-Wert: 17 mg/mL (≈ 55.3 mM)
